Data: BindingDB's records for doi:10.1021/ml300471d (Genfit, 2013)

target: T1, Nuclear receptor ROR-alpha (Homo sapiens, UniProt P35398); test: Partial agonist activity at GST-fussed RORalpha (unknown origin) assessed as recruitment of TIF2-BAP protein after overnight incubation by pull down assay
T1 sequence (P35398 whole entry): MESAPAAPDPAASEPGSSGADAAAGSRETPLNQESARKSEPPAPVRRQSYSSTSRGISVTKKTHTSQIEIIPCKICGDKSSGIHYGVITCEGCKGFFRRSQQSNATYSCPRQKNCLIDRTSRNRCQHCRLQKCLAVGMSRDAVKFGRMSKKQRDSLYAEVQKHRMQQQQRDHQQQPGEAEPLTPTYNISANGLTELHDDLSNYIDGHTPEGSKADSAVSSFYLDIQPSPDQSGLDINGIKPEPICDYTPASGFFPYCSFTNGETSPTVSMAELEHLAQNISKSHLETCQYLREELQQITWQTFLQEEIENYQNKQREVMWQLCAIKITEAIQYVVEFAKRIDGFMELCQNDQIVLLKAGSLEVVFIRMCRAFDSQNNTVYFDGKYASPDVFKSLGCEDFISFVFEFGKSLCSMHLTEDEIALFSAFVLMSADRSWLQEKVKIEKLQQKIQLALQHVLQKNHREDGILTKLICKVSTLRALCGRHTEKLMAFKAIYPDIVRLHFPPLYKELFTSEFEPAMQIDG

Row | SMILES | EC50
1 | CCOC(=O)C1C(CC)=NC(=O)NC1c1ccc(OCc2ccccc2)c(OC)c1 (stereo unspecified) | > 30 µM
2 | CCOC(=O)C1C(C)=NC(=O)N(C)C1c1ccc(OCc2ccccc2)c(OC)c1 (stereo unspecified) | > 30 µM
3 | CC1=NC(=O)NC(c2ccc(OCc3ccccc3)cc2)C1C(=O)OCC(F)(F)F (stereo unspecified) | > 30 µM
4 | COc1cc(C2NC(=O)N=C(C)C2C(=O)OCC(F)(F)F)ccc1OCc1ccccc1 (stereo unspecified) | > 30 µM
5 | COc1cc(C2NC(=O)N=C(C)C2C(=O)OCCSC)ccc1OCc1ccccc1 (stereo unspecified) | > 30 µM
6 | COc1cc(C2NC(=O)N=C(C)C2C(=O)OCc2ccccc2)ccc1OCc1ccccc1 (stereo unspecified) | > 30 µM
